Measured values from US20100240642A1, “1H-Indole-2-Carboxylic Acid Derivatives Useful As PPAR Modulators” (SMITHKLINE BEECHAM CORPORATION, priority 2006, published 2010).
Structures can show the parent of a compound that is named as a salt. Where two headings read alike, the source gives them in different places.

Biological target: T1, hPPARγ receptor (Homo sapiens, UniProt P37231)
T1 construct: expressed in transfected cells; host or cells: CV-1 (African Green Monkey kidney, ATCC CCL-70)
T1 sequence (P37231 172-475 isoform P37231-2): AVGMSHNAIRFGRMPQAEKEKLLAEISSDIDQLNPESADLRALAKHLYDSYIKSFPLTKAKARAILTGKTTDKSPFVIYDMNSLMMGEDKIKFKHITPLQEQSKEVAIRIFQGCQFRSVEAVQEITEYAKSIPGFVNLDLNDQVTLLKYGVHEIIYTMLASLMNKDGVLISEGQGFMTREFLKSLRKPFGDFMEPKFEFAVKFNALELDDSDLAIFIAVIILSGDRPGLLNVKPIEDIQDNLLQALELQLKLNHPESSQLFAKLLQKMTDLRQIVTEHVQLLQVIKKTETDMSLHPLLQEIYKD
Assay: PPARγ Cell-based luciferase assay
Text: Plasmids—PCR primers containing Kpnl and BamHI restriction sites were used to amplify PPARγ ligand binding domain (LBD) fragment (172-475) from a full-length human clone. The LBD fragment was ligated into the multiple cloning site of pFA-CMV (Stratagene). The resulting construct (pFA-CMV-GAL4-hPPARγLBD carried a fusion of the LBD with the yeast-derived GAL4 DNA-binding domain under the control of the CMV immediate early promoter. Reporter construct UAStkLuc carries a single 17 bp (CGGAGTACTGTCCTCCG) upstream activating sequence (UAS), the tk minimal promoter, and the firefly luciferase gene. The integrity of each construct was confirmed by diagnostic restriction digestion and by sequencing. Plasmid DNA was prepared using Qiagen Maxi-Prep kits.
PPARγ Cell-based luciferase assay—African Green Monkey kidney cell line CV-1 (ATCC CCL-70) was maintained in Dulbecco's Modified Eagle's Medium (D-MEM) containing 10% fetal bovine serum, 2 mM glutamine, and 1% penicillin/streptomycin (pen/strep). In preparation for luciferase assays, CV-1 cells were grown in charcoal-stripped cell medium containing D-MEM/F-12 medium supplemented with 5% or 3% dextran-treated/charcoal-stripped (CS) fetal bovine serum, 2 mM glutamine, with or without 1% pen/strep, as described below. CS fetal bovine serum was purchased from Hyclone; all other cell culture reagents were from Gibco.
The luciferase protocol is a multi-day procedure. On day 1, confluent cells in maintenance medium were subcultured 1:10 into T-175 cm^2 flasks containing 50 mL of 3% CS medium with pen/strep. These flasks were allowed to incubate at 5% CO2 and 37° C. for 72 hours.
Cells were harvested by trypsinization and then transfected using FuGENE (Roche) according to the manufacturer's specifications. Briefly, each transfection contained 0.55 μg pFA_CMV_GAL4_hPPARγ_LBD plasmid, 10.9 μg UAStkLUC, and 24 μg pBluescript (carrier DNA). Plasmid DNA was mixed with FuGENE in OptiMEM-1 medium and incubated for 30 min at room temperature. During this incubation, cells were harvested into 3% CS medium without pen-strep and dispensed at 14 million cells per T-175 cm^2 flask. Transfection mixes were added to the flasks and incubated overnight at 5% CO2 and 37° C.
Transfected cells were added to 384-well plates containing pharmacological agents. Rosiglitazone standard was reconstituted in DMSO at 1 mM. For 11-point dose-response experiments, the compounds were 3-fold serially diluted in DMSO and then stamped to 384-well assay plates (NUNC, catalog #164564) at 0.5 μL/well using a Beckman FX. DMSO and agonist control compound Rosiglitazone (1 mM) were each stamped at 0.5 μL/well to columns 23 and 24, respectively, of the 384-well plates. Transfected cells were harvested in 5% CS medium with pen/strep and dispensed at 10,000 cells/well (50 μL) onto the prepared 384-well compound plates using a Titertek Multidrop. Following overnight incubation at 5% CO2 and 37° C., Steady-Glo reagent (Promega) was added to the assay plates using a Multidrop. Plates were incubated for 10 min to ensure complete cell lysis and read in a ViewLux (PerkinElmer). […] Partial agonism is defined here as 20-80% activation (relative to full agonist rosiglitazone) at concentrations of 10^−6 M or less.

[1] = CV-1 cells transfected with GAL4-hPPARγ LBD and UAStkLuc, at concentrations of 10^−6 M or less, read-out: agonism of the hPPARγ receptor (activation relative to full agonist rosiglitazone)

| Emax [1] [%] | Compound | Emax (CV-1, read-out: agonism of the hPPARγ receptor (activation relative to full agonist rosiglitazone)) [%] |
| --- | --- | --- |
| 20 to 80 | CSc1cccc(-c2ccc(C)c(Cn3c(C(=O)O)c(-c4ccc(C(C)(C)C)cc4)c4ccccc43)c2)c1 [Example 17, 3-[4-(1,1-dimethylethyl)phenyl]-1-{[4-methyl-3′-(methylthio)-3-biphenylyl]methyl}-1H-indole-2-carboxylic acid] | – |
| 20 to 80 | COc1ccc(-c2c(C(=O)O)n(Cc3cccc(-c4ccc(O)cc4)c3)c3ccccc23)cn1 [Example 16, 1-[(4′-hydroxy-3-biphenylyl)methyl]-3-[6-(methyloxy)-3-pyridinyl]-1H-indole-2-carboxylic acid] | – |
| 20 to 80 | CSc1ccc(-c2cccc(Cn3c(C(=O)O)c(-c4ccc(C(C)(C)C)cc4)c4ccccc43)c2)cc1 [Example 23, 3-[4-(1,1-dimethylethyl)phenyl]-1-{[4′-(methylthio)-3-biphenylyl]methyl}-1H-indole-2-carboxylic acid] | – |
| 20 to 80 | CNC(=O)c1cccc(-c2ccc(C)c(Cn3c(C(=O)O)c(-c4ccc(C(C)(C)C)cc4)c4ccccc43)c2)c1 [Example 29, 3-[4-(1,1-dimethylethyl)phenyl]-1-({4-methyl-3′-[(methylamino)carbonyl]-3-biphenylyl}methyl)-1H-indole-2-carboxylic acid] | – |
| 20 to 80 | CCOC(=O)N1CCN(c2cccc(Cn3c(C(=O)O)c(-c4ccc(C(C)(C)C)cc4)c4ccccc43)c2)CC1 [Example 46, 3-[4-(1,1-dimethylethyl)phenyl]-1-[(3-{4-[(ethyloxy)carbonyl]-1-piperazinyl}phenyl)methyl]-1H-indole-2-carboxylic acid] | – |
| 20 to 80 | CC(C)(C)c1ccc(-c2c(C(=O)O)n(Cc3cc(OCc4ccccc4)cc(-c4ccc(C(=O)O)cc4)c3)c3ccccc23)cc1 [Example 19, 1-({4′-carboxy-5-[(phenylmethyl)oxy]-3-biphenylyl}methyl)-3-[4-(1,1-dimethylethyl)phenyl]-1H-indole-2-carboxylic acid] | – |

Further lines, the molecule ahead of its results:

| Compound | Emax [1] [%] | Emax (CV-1, read-out: agonism of the hPPARγ receptor (activation relative to full agonist rosiglitazone)) [%] |
| --- | --- | --- |
| CC(C)(C)c1ccc(-c2c(C(=O)O)n(Cc3cc(C(F)(F)F)cc(C(F)(F)F)c3)c3ccccc23)cc1 [Example 63, 1-{[3,5-bis(trifluoromethyl)phenyl]methyl}-3-[4-(1,1-dimethylethyl)phenyl]-1H-indole-2-carboxylic acid] | 20 to 80 | – |
| COCCOc1cc(Cn2c(C(=O)O)c(-c3ccc(C(C)(C)C)cc3)c3ccccc32)cc(OC(=O)N2CCNC2=O)c1 [Example 53, 3-[4-(1,1-dimethylethyl)phenyl]-1-[(3-{[2-(methyloxy)ethyl]oxy}-5-{[(2-oxo-1-imidazolidinyl)carbonyl]oxy}phenyl)methyl]-1H-indole-2-carboxylic acid] | – | 20 to 80 |
| COCCOc1cc(Cn2c(C(=O)O)c(-c3ccc(C(C)(C)C)cc3)c3ccccc32)cc(OC(=O)N2CCCCC2)c1 [Example 51, 3-[4-(1,1-dimethylethyl)phenyl]-1-({3-{[2-(methyloxy)ethyl]oxy}-5-[(1-piperidinylcarbonyl)oxy]phenyl}methyl)-1H-indole-2-carboxylic acid] | 20 to 80 | – |
| COCCOc1cc(Cn2c(C(=O)O)c(Cc3cccc(C(F)(F)F)c3)c3ccccc32)cc(OCCOC)c1 [Example 58, 1-[(3,5-bis{[2-(methyloxy)ethyl]oxy}phenyl)methyl]-3-{[3-(trifluoromethyl)phenyl]methyl}-1H-indole-2-carboxylic acid] | 20 to 80 | – |
| COCCOc1cc(Cn2c(C(=O)O)c(-c3ccc(C(C)(C)C)cc3)c3ccccc32)cc(OC(=O)N2CCOCC2)c1 [Example 52, 3-[4-(1,1-dimethylethyl)phenyl]-1-({3-{[2-(methyloxy)ethyl]oxy}-5-[(4-morpholinylcarbonyl)oxy]phenyl}methyl)-1H-indole-2-carboxylic acid] | 20 to 80 | – |
| CN(C)CCCOc1cc(Cn2c(C(=O)O)c(Cc3cccc(C(F)(F)F)c3)c3ccccc32)cc(OCC2CC2)c1 [Example 57, 1-[(3-[(cyclopropylmethyl)oxy]-5-{[3-(dimethylamino)propyl]oxy}phenyl)methyl]-3-{[3-(trifluoromethyl)phenyl]methyl}-1H-indole-2-carboxylic acid hydrochloride] | 20 to 80 | – |
